Where a SMILES comes first, the peptide text is derived from it. Bridges are numbered along the chain shown (N, C = ends). Roman numbers before positions name the chains, in order. [ ]: non-standard residue; d: D form. The star is where a group is joined. Arachidoyl = CCCCCCCCCCCCCCCCCCCC(=O)*; Stearoyl = CCCCCCCCCCCCCCCCCC(=O)*; Orn = NCCC[C@H](N)C(=O)O
How the values were obtained:
[1] = Fluorescent dye (PicoGreen) intercalation and heparin displacement assay of CPP/siRNA complexes; format: physicochemical; settings: for accessibility of siRNA in complexes (dye intercalation): MR30, no heparin
How it was run: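 PicoGreen fluorescence (ex 492/em 535 nm) of CPP/siRNA complexes in water after 5 min with dye, reporting siRNA accessibility. In the displacement arm, complexes were first incubated with heparin at varying concentrations for 30 min at 37 °C before adding PicoGreen.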

[2] = test system: murine blood coagulation factor VII mRNA; assay: Gene downregulation in vivo (siFVII, mouse liver, qRT-PCR)
Procedure: For the gene downregulation studies male Balb/c, 2-4 month-old mice were used, with 2-5 mice per group. The CPP/siRNA complexes were formed at MR30 and for each mouse 1.6 mg/kg siRNA dose was used. Particle formulations were administered intravenously via tail vein injection, at 1.6 mg/kg siRNA dose. 48 h post treatment, liver tissues were harvested and snap-frozen for analyses. The tissues were homogenized using Precellys®24-Dual homogenization system (Bertin Technologies, France) with TRIzol reagent (Thermo Fisher Scientific). RNA was extracted according to TRIzol manufacturers protocol with slight modifications. RNA quality and concentration was assessed on 1.8% agarose gel and NanoDrop2000. From RNA complementary DNA was synthesized using SuperScript IV Reverse Transcriptase (Thermo Fisher Scientific) according to manufacturer's protocol. The synthesized cDNA was used for qPCR accompanied with 5× HOT FIREPol EvaGreen qPCR Supermix (Solis Biodyne, Estonia) according to manufacturer's protocol. The obtained data was analyzed using 2-ΔΔCT method and normalized to untreated mouse group (100%). siRNA against blood coagulation factor VII (siFVII) sense 5′-gga (2′F-U) (2′F-C) a (2′F-U) (2′F-C) (2′F-U) (2′F-C) aag (2′F-U) (2′F-C) (2′F-U) (2′F-U) a (2′F-C) T*T-3″ and antisense 5′-g (2′F-U) aaga (2′F-C) (2′F-U) (2′F-U) gaga (2′F-U) ga (2′F-U) (2′F-C) (2′F-C) T*T 3′. Primers for PCR (Mus blood coagulation factor VII) forward […] (SEQ ID NO:11), reverse: […] (SEQ ID NO:12) and (Mus Actin beta) forward: […] (SEQ ID NO: 13) and reverse: […] (SEQ ID NO:14). The siRNA and primers were synthesized by the same manufacturer (Metabion, Germany). Data was collected with ViiA 7 RT_PCR system and analysis based on […] and normalized to results from untreated mice.
As a control hydrodynamic injection of 600 ul of siRNA was used and untreated mice were included. All animal experiments and procedures were approved by the Estonian Laboratory Animal Ethics Committee (approvals no 81, dated Apr. 4, 2016, and 69 and 70, dated Feb. 9, 2011).

[3] = test system: CHO cells; assay: pDNA (p-CMV-Luc2) transfection with CPP/pDNA complexes; format: cell-based; settings: serum containing medium, CR1 to CR4, 24 h
Procedure: For the pDNA transfection experiment, CPP/pDNA nanoparticles were prepared by mixing […] of plasmid (p-CMV-Luc2) with the peptide in MQ water. Charge ratios from 1 to 4 (CR, equivalent to the nitrogen-to-phosphate ratio) were used. 50,000 CHO cells were seeded 24 hr before the experiment into 24-well plates, treated with complexes for 4 h in serum-containing medium, incubated for additional 20 hr, lysed and luminescence was measured.

[4] = molecular target: T1, Proteinase K (Parengyodontium album, UniProt P06873); assay: Stability of CPP/siRNA complexes to degradation by Proteinase K; format: physicochemical; settings: Proteinase K >14.4 U per well
T1 construct: purchased Thermo Scientific, USA
Procedure: To assess protection of siRNA from enzymatic degradation, after addition of PG dilution and initial measurement to set a starting point, Proteinase K (Thermo Scientific, USA) was added (>14 U/ml, 20 ul of mixture per well containing dilution of 120 ul of enzyme in 1 ml), co-incubated with complexes and fluorescence was measured over a 10 h period.

[5] = test system: U87 cells; assay: MTS toxicity assay; format: cell-based, human
Procedure: Cell proliferation was determined with the CellTiter 96® Aqueous Non-Radioactive Cell Proliferation Assay (MTS) (Promega Biotech AB, Sweden) according to the manufacturer's instructions. For this 1×10^5 U87 cells were seeded 1 day prior to experiment on transparent 96-well plates. On experiment day, media was replaced with 90 ul of fresh media and to the cells complexes formed at MR30 (both with 25 nM and 100 nM final siRNA concentrations) or free peptide at the range of 0.5-4 uM final concentrations were added. Cells were treated with complexes for 20 h. MTS was added according to the manufacturer's protocol. The absorbance of formazan product was measured at 490 nm with Tecan Sunrise microplate absorbance reader (Tecan Group Ltd, Switzerland) and percentage of viable cells was calculated using GraphPad Prism software 5.0 (Graphpad Software, CA, USA).

[6] = test system: subcutaneous U87MG tumor xenograft; assay: Biodistribution of CPP/Cy5-siRNA nanoparticles, U87 tumor; format: in vivo, mouse; settings: peak at 3 h
Procedure: (§1) Human tumor xenografts (subcutaneous U87MG and HT-1080) were induced in mice (Hsd: Athymic Nude-Foxn1nu female, 2.5 month old, Harlan, UK). The xenografting was performed by implanting the cell suspension (1×10^6 cells in 100 ul volume of ice-cold DMEM without any supplements) subcutaneously to the flank.
(§2) At the appearance of tumor size of approx. 100 mm^3, mice were injected i.v. (via tail vein) with the CPP/siRNA complexes. Each animal received a single 200 ul i.v. injection of 20 ug Cy5-siRNA, formulated with CPPs at MR20 or MR40. As a control, 20 μg of un-complexed Cy5-labeled siRNA was administered. The biodistribution of Cy5-siRNA and CPP/Cy5-siRNA complexes was evaluated at different time points −0.5 h up to 6 h. For that, mice (n=2 in each treatment group) were imaged in vivo using IVIS Lumina II (CaliperLS, USA). Cy-5 fluorescence intensity values were acquired from the tumor region.

[7] = test system: subcutaneous HT-1080 tumor xenograft; assay: Biodistribution of CPP/Cy5-siRNA nanoparticles, HT-1080 tumor; format: in vivo, mouse; settings: peak at 3 h
Procedure: as §1, §2

T1 sequence (P06873 106-384): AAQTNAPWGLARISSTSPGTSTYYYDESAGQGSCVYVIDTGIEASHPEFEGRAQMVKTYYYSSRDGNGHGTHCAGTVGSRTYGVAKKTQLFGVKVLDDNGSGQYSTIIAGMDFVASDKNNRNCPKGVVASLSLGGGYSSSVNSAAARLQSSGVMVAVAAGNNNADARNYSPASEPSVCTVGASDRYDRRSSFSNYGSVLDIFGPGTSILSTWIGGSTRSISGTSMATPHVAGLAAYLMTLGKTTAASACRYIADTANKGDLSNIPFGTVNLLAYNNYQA

Compound	accessibility of siRNA in complexes (dye intercalation) [1]	RNA levels preserved compared to untreated mice ([2]; 1.6 mg/kg siFVII, 48 h, liver)	downregulation compared to siRNA treated group ([2]; 1.6 mg/kg siRNA)	downregulation compared to free siRNA and In vivo JetPEI at N/P6 ([2]; same 1.6 mg/kg dose)	downregulation of the target (FVII) in mouse liver ([2]; single i.v. injection, 1.6 mg/kg siRNA, MR30, 48 h, vs untreated mice)	pDNA delivery / gene expression in vitro (in words) [3]	stability of complexes to proteinase K (in words) [4]	concentration at which free peptide is toxic to cells (MTS) [5]	peak accumulation in U87 tumor relative to naked Cy5-siRNA [6]	siRNA accessible ([1]; 0.5 mg/ml heparin, complexes pre-formed at MR30)	stability of complexes to heparin displacement (in words) ([1]; complexes pre-formed at MR30)	peak accumulation in HT-1080 tumor relative to naked Cy5-siRNA [7]
CCCCCCCCCCCCCCCCCCCC(=O)N[C@@H](Cc1c[nH]cn1)C(=O)N[C@@H](Cc1c[nH]cn1)C(=O)N[C@@H](Cc1c[nH]cn1)C(=O)N[C@@H](Cc1c[nH]cn1)C(=O)N[C@@H](Cc1ccc(O)cc1)C(=O)N[C@@H](Cc1c[nH]cn1)C(=O)N[C@@H](Cc1c[nH]cn1)C(=O)NCC(=O)NCCC[C@H](N)C(=O)N[C@H](C(=O)N[C@@H](CC(C)C)C(=O)N[C@@H](CC(C)C)C(=O)N[C@@H](CCCCN)C(=O)N[C@@H](C)C(=O)N[C@@H](CC(C)C)C(=O)N[C@@H](CCCCN)C(=O)N[C@@H](C)C(=O)N[C@@H](CC(C)C)C(=O)N[C@@H](C)C(=O)N[C@@H](CCCCN)C(=O)N[C@@H](C)C(=O)N[C@H](C(=O)N[C@@H](CC(C)C)C(N)=O)[C@@H](C)CC)[C@@H](C)CC [NF70] (I: H-[Orn]ILLKALKALAKAIL-NH2 / II: Arachidoyl-HHHHYHHG; amide I:1-II:C)	low accessibility of siRNA	approximately 40%	30%	higher downregulation effect	~60%	–	–	–	–	–	–	–
CCCCCCCCCCCCCCCCCC(=O)N[C@@H](Cc1c[nH]cn1)C(=O)N[C@@H](Cc1c[nH]cn1)C(=O)N[C@@H](Cc1ccc(O)cc1)C(=O)N[C@@H](Cc1c[nH]cn1)C(=O)N[C@@H](Cc1c[nH]cn1)C(=O)NCC(=O)NCCC[C@H](N)C(=O)N[C@H](C(=O)N[C@@H](CC(C)C)C(=O)N[C@@H](CC(C)C)C(=O)N[C@@H](CCCCN)C(=O)N[C@@H](C)C(=O)N[C@@H](CC(C)C)C(=O)N[C@@H](CCCCN)C(=O)N[C@@H](C)C(=O)N[C@@H](CC(C)C)C(=O)N[C@@H](C)C(=O)N[C@@H](CCCCN)C(=O)N[C@@H](C)C(=O)N[C@H](C(=O)N[C@@H](CC(C)C)C(N)=O)[C@@H](C)CC)[C@@H](C)CC [NF71] (I: H-[Orn]ILLKALKALAKAIL-NH2 / II: Stearoyl-HHYHHG; amide I:1-II:C)	low accessibility of siRNA	–	–	–	–	promising vectors for pDNA transfection	only slightly more resistant than NF55/siRNA complexes	≥ 5 µM	27 fold	17%	less resistant to heparin displacement than NF55/siRNA	37 fold

Source: patent US12385042B2, “Cell-penetrating peptides” (VECTIOPEP OÜ, priority 2019, dated 2025)
